Data as given in ChEMBL document CHEMBL5727955, “Aminopyrazoles as janus kinase inhibitors” (2020).

Legend:
[1] = target: Tyrosine-protein kinase JAK2 (Homo sapiens, UniProt O60674); assay: (§1) Biochemical HTRF Enzyme Assay Protocol: The basic assay protocol is as follows: First, 250 nL of diluted compounds in DMSO were dispensed into the wells of a dry 384-well Black plate (GreinerFluotrac™ catalog number: 781076; Greiner Bio-One GmbH, Frickenhausen, Germany) using a Labcyte Echo® 555 acoustic dispenser ([…], Sunnyvale, Calif., USA). Subsequent reagent additions employed an Agilent™ Bravo™ liquid handling system (Aligent Technologies, Santa Clara, Calif., USA). […] After equilibration, 2 μL of 10×ATP in 1× assay buffer was added to initiate the kinase reaction and the plates were shaken and then incubated at ambient temperature for 120 minutes. At the end of the incubation, 20 μL of 2× stop buffer (Streptavidin-Dylight 650/100 mL catalogue number: 8454B (Invitrogen™/Life Technologies/ThermoFisher Scientific Inc., Waltham, Mass., USA); Europium-tagged pY20 antibody (PerkinElmer™ catalogue number: AD0067 (PerkinElmer™, Waltham, Mass., USA)); EDTA; HEPES; and Triton™ X-100 (Sigma-Aldrich, St. Louis, Mo., USA) was added to quench the reaction.
[2] = target: Tyrosine-protein kinase JAK1 (Homo sapiens, UniProt P23458); assay: as §1
Sequence of Tyrosine-protein kinase JAK1 (P23458 whole entry): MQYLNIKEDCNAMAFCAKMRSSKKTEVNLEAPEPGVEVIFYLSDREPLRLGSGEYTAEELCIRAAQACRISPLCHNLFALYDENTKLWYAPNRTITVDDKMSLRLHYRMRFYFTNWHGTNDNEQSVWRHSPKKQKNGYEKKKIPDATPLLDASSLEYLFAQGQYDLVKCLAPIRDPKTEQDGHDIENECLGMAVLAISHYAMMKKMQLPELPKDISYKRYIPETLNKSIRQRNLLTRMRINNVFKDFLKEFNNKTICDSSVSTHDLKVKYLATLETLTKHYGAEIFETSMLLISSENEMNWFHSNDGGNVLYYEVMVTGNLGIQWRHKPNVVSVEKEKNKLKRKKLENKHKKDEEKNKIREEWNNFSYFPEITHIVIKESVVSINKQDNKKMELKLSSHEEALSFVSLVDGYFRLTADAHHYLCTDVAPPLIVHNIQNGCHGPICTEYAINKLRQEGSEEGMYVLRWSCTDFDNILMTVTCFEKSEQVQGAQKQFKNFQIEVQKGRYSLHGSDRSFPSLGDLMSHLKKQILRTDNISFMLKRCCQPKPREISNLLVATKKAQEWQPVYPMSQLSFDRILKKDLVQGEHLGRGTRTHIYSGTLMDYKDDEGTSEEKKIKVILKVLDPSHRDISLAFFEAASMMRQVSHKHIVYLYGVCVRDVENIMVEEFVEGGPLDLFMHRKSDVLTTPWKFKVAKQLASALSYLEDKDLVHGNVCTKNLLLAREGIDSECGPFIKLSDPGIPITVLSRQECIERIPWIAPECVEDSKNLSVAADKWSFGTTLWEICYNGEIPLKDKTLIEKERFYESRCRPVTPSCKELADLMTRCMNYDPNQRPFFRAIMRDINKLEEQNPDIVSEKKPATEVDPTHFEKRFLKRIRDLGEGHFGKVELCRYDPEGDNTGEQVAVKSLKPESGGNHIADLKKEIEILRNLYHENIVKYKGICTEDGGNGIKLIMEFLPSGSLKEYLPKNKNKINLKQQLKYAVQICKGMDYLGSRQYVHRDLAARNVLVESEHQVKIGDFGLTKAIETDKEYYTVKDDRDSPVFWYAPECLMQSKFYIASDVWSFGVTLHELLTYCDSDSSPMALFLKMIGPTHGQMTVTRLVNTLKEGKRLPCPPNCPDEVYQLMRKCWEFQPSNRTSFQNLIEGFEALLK

Sequence of Tyrosine-protein kinase JAK2 (O60674 whole entry): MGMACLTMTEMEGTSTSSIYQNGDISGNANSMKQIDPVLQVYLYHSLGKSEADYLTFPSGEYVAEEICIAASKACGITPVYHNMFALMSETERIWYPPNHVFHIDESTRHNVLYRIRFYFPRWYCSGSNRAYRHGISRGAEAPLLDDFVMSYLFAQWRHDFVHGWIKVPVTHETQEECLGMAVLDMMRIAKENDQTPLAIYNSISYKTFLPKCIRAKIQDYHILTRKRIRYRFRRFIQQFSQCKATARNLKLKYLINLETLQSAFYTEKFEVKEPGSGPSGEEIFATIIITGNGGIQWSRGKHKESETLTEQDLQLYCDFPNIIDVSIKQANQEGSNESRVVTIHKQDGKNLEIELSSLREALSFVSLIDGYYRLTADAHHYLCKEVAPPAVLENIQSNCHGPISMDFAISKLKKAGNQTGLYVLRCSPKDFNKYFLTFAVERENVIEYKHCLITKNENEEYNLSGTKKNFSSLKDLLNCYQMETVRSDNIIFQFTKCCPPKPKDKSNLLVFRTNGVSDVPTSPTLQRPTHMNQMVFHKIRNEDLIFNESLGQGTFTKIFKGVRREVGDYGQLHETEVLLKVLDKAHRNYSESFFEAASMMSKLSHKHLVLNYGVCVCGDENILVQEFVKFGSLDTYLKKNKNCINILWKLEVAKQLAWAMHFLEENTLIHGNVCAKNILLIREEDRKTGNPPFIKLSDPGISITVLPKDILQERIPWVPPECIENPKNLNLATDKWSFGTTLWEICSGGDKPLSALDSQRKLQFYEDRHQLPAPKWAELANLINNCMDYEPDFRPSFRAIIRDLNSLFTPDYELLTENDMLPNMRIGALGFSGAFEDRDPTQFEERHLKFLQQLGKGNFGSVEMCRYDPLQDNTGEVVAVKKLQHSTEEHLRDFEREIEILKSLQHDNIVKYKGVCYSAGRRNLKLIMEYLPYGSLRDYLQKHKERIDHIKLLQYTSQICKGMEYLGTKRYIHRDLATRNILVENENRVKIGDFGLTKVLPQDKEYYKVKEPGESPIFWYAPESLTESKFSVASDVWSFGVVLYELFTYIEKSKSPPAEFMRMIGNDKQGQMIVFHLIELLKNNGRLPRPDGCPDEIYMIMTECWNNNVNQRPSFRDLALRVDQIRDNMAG

IC50 [1] [nM]	IC50 [2] [nM]	SMILES
1.35	0.16	N#C[C@H]1CCOC[C@@H]1n1cc(C(N)=O)c(Nc2ccc(OC(F)(F)F)cc2)n1
–	2.09	N#C[C@H]1CCOC[C@@H]1n1cc(C(N)=O)c(Nc2ccc(Cl)c(Cl)c2)n1
